Molecular target: T1, NLRP3 inflammasomes (Homo sapiens, UniProt Q96P20)
T1 construct: endogenous in cells; host or cells: THP-1 human monocytic cells, PMA-differentiated, LPS-primed, nigericin-stimulated
Assay: THP-1 pyroptosis test (cell pyroptosis test)
Assay type: cell-based
Settings: THP-1 cells differentiated with PMA, LPS stimulation, 10 μM nigericin, drug 0.001-10 μM, MTT absorbance 562 nm
Experimental: In vitro activity screening was performed on small molecule compounds targeting inhibition on NLRP3 inflammasomes using THP-1 human monocytic cells (THP-1). THP-1 can be induced to differentiate into macrophages by phorbol ester (PMA), and the macrophages M1 can be induced to polarize by lipopolysaccharide (LPS) to release cytokines such as TNF-α, and IL-6, so as to establish a typical inflammatory model.
THP-1 cells in a logarithmic growth phase were collected to prepare a 1×10^6 cells/mL cell suspension, PMA was added to achieve a final concentration of 300 ng/mL in the cell suspension, then 1×10^5 cells were inoculated to each well of a 96-well plate, and the cells were cultured in a 37° C., 5% CO2 cell incubator for 24 hours and induced to differentiate into macrophages.
The next day, LPS was added to stimulate and induce the cells to produce an inflammatory model. […] In the 200 μL system of the 96-well plate, the final concentration of each drug was 0.001-10 μM, and the final concentration of the nigericin was 10 μM.
Cell apoptosis protection rate=[(X−C0)/(C−C0)]×100%
wherein, C, C0 and X represent average absorbance values of the normal cell group, the blank control group, and the drug treatment group, respectively. Finally, cell survival curves were fitted by Graphpad Prism 5.0 software and EC50 values of the compounds to be tested in inhibiting pyroptosis caused by NLRP3 inflammasomes were calculated.

T1 sequence (Q96P20 whole entry): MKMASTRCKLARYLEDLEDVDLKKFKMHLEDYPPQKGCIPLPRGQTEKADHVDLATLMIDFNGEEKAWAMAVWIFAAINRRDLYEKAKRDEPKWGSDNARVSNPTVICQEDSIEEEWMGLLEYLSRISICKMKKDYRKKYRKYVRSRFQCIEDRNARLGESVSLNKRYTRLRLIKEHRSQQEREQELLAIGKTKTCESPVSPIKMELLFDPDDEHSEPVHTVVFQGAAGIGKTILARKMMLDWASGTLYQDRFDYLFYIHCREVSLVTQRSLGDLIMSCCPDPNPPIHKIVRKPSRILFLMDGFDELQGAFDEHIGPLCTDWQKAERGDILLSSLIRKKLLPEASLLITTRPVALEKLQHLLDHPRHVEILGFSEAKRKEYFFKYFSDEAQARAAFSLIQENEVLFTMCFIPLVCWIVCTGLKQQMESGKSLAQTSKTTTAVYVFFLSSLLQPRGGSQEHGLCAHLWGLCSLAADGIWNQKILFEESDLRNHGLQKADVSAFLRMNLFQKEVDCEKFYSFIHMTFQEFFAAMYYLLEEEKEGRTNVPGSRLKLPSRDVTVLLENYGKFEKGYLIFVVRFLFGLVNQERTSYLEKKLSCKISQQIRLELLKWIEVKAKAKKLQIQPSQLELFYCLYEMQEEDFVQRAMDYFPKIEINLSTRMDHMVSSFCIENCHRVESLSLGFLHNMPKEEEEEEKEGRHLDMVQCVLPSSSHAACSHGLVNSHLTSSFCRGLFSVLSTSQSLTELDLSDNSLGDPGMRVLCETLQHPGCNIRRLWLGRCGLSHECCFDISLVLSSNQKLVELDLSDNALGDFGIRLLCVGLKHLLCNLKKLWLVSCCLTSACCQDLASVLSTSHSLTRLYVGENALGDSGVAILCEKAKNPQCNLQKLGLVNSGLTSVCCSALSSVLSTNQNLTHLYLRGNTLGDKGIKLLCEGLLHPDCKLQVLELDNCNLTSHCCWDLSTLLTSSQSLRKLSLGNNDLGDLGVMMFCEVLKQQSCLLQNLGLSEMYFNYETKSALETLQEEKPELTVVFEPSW

Compound	EC50 [nM]
CN1CCC[C@@H](Nc2nnc(-c3ccc(C(F)(F)F)cc3O)c3cc(F)ccc23)C1 [Compound 16, 2-(7-fluoro-4-{[(3R)-1-methylpiperidin-3-yl]amino}phthalazin-1-yl)-5-(trifluoromethyl)phenol]	< 20
C[C@H](Nc1nnc(-c2ccc(C(F)(F)F)cc2O)c2ccccc12)c1ccccc1 [Compound 8, (S)-2-(4-((1-phenylethyl)amino)phthalazin-1-yl)-5-(trifluoromethyl)phenol]	> 1000
Oc1cc(C(F)(F)F)ccc1-c1nnc(N[C@@H]2CCc3ncccc32)c2ccccc12 [Compound 29, (R)-2-(4-((6,7-dihydro-5H-cyclopenta[b]pyridin-5-yl)amino)phthalazin-1-yl)-5-(trifluoromethyl)phenol]	20 to 100
CN1CCC[C@@H](Nc2nnc(-c3ccc(C(F)(F)F)cc3O)c3cnn(C)c23)C1 [Compound 62, (R)-2-(1-methyl-7-((1-methylpiperidin-3-yl)amino)-1H-pyrazolo[3,4-d]pyridazin-4-yl)-5-(trifluoromethyl)phenol]	< 20
CCN1CC[C@@H](Nc2nnc(-c3ccc(C(F)(F)F)cc3O)c3ccccc23)C1 [Compound 25, (R)-2-(4-((1-ethylpyrrolidin-3-yl)amino)phthalazin-1-yl)-5-(trifluoromethyl)phenol]	< 20
C[C@@H](Nc1nnc(-c2ccc(C(F)(F)F)cc2O)c2ccccc12)c1ccccn1 [Compound 12, (R)-2-(4-((1-(pyridin-2-yl)ethyl)amino)phthalazin-1-yl)-5-(trifluoromethyl)phenol]	> 1000
CN1CCC[C@@H](Nc2nnc(-c3ccc(C(F)(F)F)cc3O)c3c2nc(C2CC2)n3C)C1 [Compound 59]	< 20
CN1CCC[C@@H](Nc2nnc(-c3ccccc3O)c3ccccc23)C1 [Compound 31, (R)-2-(4-((1-methylpiperidin-3-yl)amino)phthalazin-1-yl)phenol]	500 to 1000
CN1CCC[C@@H](Nc2nnc(-c3ccc(C(F)(F)F)cc3O)c3c2cnn3C)C1 [Compound 63, (R)-2-(1-methyl-4-((1-methylpiperidin-3-yl)amino)-1H-pyrazolo[3,4-d]pyridazin-7-yl)-5-(trifluoromethyl)phenol]	< 20
Cc1cnc2c(N[C@@H]3CCCN(C)C3)nnc(-c3ccccc3O)c2c1 [Compound 56, (R)-2-(3-methyl-8-((1-methylpiperidin-3-yl)amino)pyridino[2,3-d]pyridazin-5-yl)phenol]	< 20
CN1CC[C@@H](Oc2nnc(-c3ccc(C(F)(F)F)cc3O)c3c2ncn3C)C1 [Compound 85]	> 1000
CC(C)(O)CNc1nnc(-c2ccc(C(F)(F)F)cc2O)c2ccccc12 [Compound 20, 2-(4-((2-hydroxy-2-methylpropyl)amino)phthalazin-1-yl)-5-(trifluoromethyl)phenol]	> 1000
Cc1ccc(-c2nnc(N[C@@H]3CCCN(C)C3)c3c2cnn3C)c(O)c1 [Compound 64]	< 20
CC(=O)N1CCC[C@@H](Nc2nnc(-c3ccc(C(F)(F)F)cc3O)c3ccccc23)C1 [Compound 32, (R)-1-(3-((4-(2-hydroxy-4-(trifluoromethyl)phenyl)phthalazin-1-yl)amino)piperidin-1-yl)ethane-1-one]	20 to 100
Cn1cnc2c(NCCN3CCOCC3)nnc(-c3ccc(F)cc3O)c21 [Compound 82]	> 1000
Cn1cnc2c(N[C@H]3CCCc4ncccc43)nnc(-c3ccc(C(F)(F)F)cc3O)c21 [Compound 79]	> 1000
Oc1cc(C(F)(F)F)ccc1-c1nnc(NCCN2CCOCC2)c2ccccc12 [Compound 21, 2-(4-((2-morpholinylethyl)amino)phthalazin-1-yl)-5-(trifluoromethyl)phenol]	> 1000
CN1CCC[C@@H](Nc2nnc(-c3ccc(C(F)(F)F)cc3O)c3ncn(C)c23)C1 [Compound 36, (R)-2-(1-methyl-7-((1-methylpiperidin-3-yl)amino)-1H-imidazo[4,5-d]pyridazin-4-yl)-5-(trifluoromethyl)phenol]	500 to 1000

Compound	EC50 [nM]
CN1CC[C@@H](Nc2nnc(-c3ccc(C(F)(F)F)cc3O)c3ccccc23)C1 [Compound 24, (R)-2-(4-((1-methylpyrrolidin-3-yl)amino)phthalazin-1-yl)-5-(trifluoromethyl)phenol]	< 20
CN1CCC[C@@H](Nc2nnc(-c3sccc3O)c3c2ncn3C)C1 [Compound 83]	> 1000
CN1CC[C@@H](Nc2nnc(-c3ccc(C(F)(F)F)cc3O)c3c2cnn3C)C1 [Compound 72]	20 to 100
Cn1ncc2c(NCCN3CCOCC3)nnc(-c3ccc(C(F)(F)F)cc3O)c21 [Compound 73]	500 to 1000
CN1CCC[C@@H](Nc2nnc(-c3ccc(OC(F)(F)F)cc3O)c3ccccc23)C1 [Compound 41, (R)-2-(4-((1-methylpiperidin-3-yl)amino)phthalazin-1-yl)-5-(trifluoromethoxy)phenol]	< 20
CN1CCC[C@@H](Nc2nnc(-c3ccc(F)cc3O)c3ccccc23)C1 [Compound 44, (R)-5-fluoro-2-(4-((1-methylpiperidin-3-yl)amino)phthalazin-1-yl)phenol]	20 to 100
CCN1CCC[C@H]1CNc1nnc(-c2ccc(C(F)(F)F)cc2O)c2ccccc12 [Compound 28]	100 to 500
Cc1nc2c(N[C@@H]3CCCN(C)C3)nnc(-c3ccc(C(F)(F)F)cc3O)c2n1C [Compound 57]	< 20
CN1CCC(Nc2nnc(-c3ccc(F)cc3O)c3cnn(C)c23)CC1 [Compound 69]	> 1000
CN1CCC[C@@H](Oc2nnc(-c3ccc(C(F)(F)F)cc3O)c3c2ncn3C)C1 [Compound 86]	> 1000
CN(C)[C@H]1CC[C@@H](Nc2nnc(-c3ccc(C(F)(F)F)cc3O)c3ccccc23)CC1 [Compound 19]	500 to 1000
CN1CCC[C@@H]1CNc1nnc(-c2ccc(C(F)(F)F)cc2O)c2ccccc12 [Compound 26]	500 to 1000
CN1CC(Nc2nnc(-c3ccc(C(F)(F)F)cc3O)c3ncn(C)c23)CCC1=O (stereo not drawn) [Compound 81]	> 1000
CCc1cnc2c(N[C@@H]3CCCN(C)C3)nnc(-c3ccc(C(F)(F)F)cc3O)c2c1 [Compound 50, (R)-2-(3-ethyl-8-((1-methylpiperidin-3-yl)amino)pyridino[2,3-d]pyridazin-5-yl)-5-(trifluoromethyl)phenol]	< 20
Cc1ccc(O)c(-c2nnc(N[C@@H]3CCCN(C)C3)c3ccccc23)c1 [Compound 47, (R)-4-methyl-2-(4-((1-methylpiperidin-3-yl)amino)phthalazin-1-yl)phenol]	> 1000
Cc1ccc2c(N[C@@H]3CCCN(C)C3)nnc(-c3ccc(C(F)(F)F)cc3O)c2n1 [Compound 53, (R)-2-(2-methyl-5-((1-methylpiperidin-3-yl)amino)pyridino[2,3-d]pyridazin-8-yl)-5-(trifluoromethyl)phenol]	100 to 500
CCN1CC[C@@H](CNc2nnc(-c3ccc(C(F)(F)F)cc3O)c3c2cnn3C)C1 [Compound 71]	> 1000
CN1CCC[C@@H](Nc2nnc(-c3ccc(C(F)(F)F)cc3O)c3ccc(P(C)(C)=O)cc23)C1 [Compound 43, (R)-(1-(2-hydroxy-4-(trifluoromethyl)phenyl)-4-((1-methylpiperidin-3-yl)amino)phthalazin-6-yl)dimethylphosphine oxide]	500 to 1000
